In US9113629B2, “4-amino-6-(4-substituted-phenyl)-picolinates and 6-amino-2-(4-substituted-phenyl)-pyrimidine-4-carboxylates and their use as herbicides” (DOW AGROSCIENCES LLC, priority 2013, dated 2015):
Like-named read-outs stand apart in the source and are kept apart here.

What was measured:
[1] = test system: Key Broadleaf Weed and Crop Species; test: Post-emergent Test II herbicidal activity (Table 5); format: in vivo; conditions: post-emergence, 336 h, post-emergent, 14 days after application; for pest or weed control at 66 g/ha: 66 g ai/ha; for pest or weed control at 132 g/ha: 132 g ai/ha
Method in brief: (§1)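 Post-emergence foliar spray, 187 L/ha, track sprayer at 43 cm above canopy. Carrier: acetone/water/IPA/DMSO/Atplus 411F/Triton X-155. Plants at 1st–2nd true leaf; subirrigated afterwards; % injury scored visually at 14 d.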

[2] = test system: Key Grass and Sedge Weeds as well as Grass Crops; test: Post-emergent Test II herbicidal activity (Table 6); format: in vivo; conditions: post-emergence, 336 h; for pest or weed control at 66 g/ha: application rate 66 g ai/ha; for pest or weed control at 132 g/ha: application rate 132 g ai/ha
Method in brief: as §1

[3] = ABUTH: velvetleaf (Abutilon theophrasti), read-out: Visual Growth Reduction (%) 14 Days After Application ABUTH
[4] = AMARE: redroot pigweed (Amaranthus retroflexus), read-out: Visual Growth Reduction (%) 14 Days After Application AMARE
[5] = BRSNN: oilseed-rape, canola (Brassica napus), read-out: Visual Growth Reduction (%) 14 Days After Application BRSNN
[6] = CHEAL: lambsquarters (Chenopodium album), read-out: Visual Growth Reduction (%) 14 Days After Application CHEAL
[7] = EPHHL: wild poinsettia (Euphorbia heterophylla), read-out: Visual Growth Reduction (%) 14 Days After Application EPHHL
[8] = HELAN: sunflower (Helianthus annuus), read-out: Visual Growth Reduction (%) 14 Days After Application HELAN
[9] = VIOTR: wild pansy (Viola tricolor), read-out: Visual Growth Reduction (%) 14 Days After Application VIOTR
[10] = Triticum aestivum, TRZSS (wheat), read-out: Visual Growth Reduction (%) 14 Days After Application, TRZSS
[11] = CYPES: yellow nutsedge (Cyperus esculentus), read-out: Visual Growth Reduction (%) 14 Days After Application, CYPES
[12] = DIGSA: crabgrass (Digitaria sanguinalis), read-out: Visual Growth Reduction (%) 14 Days After Application, DIGSA
[13] = ECHCG: barnyardgrass (Echinochloa crus-galli), read-out: Visual Growth Reduction (%) 14 Days After Application, ECHCG
[14] = ORYSA: rice (Oryza sativa), read-out: Visual Growth Reduction (%) 14 Days After Application, ORYSA
[15] = SETFA: giant foxtail (Setaria faberi), read-out: Visual Growth Reduction (%) 14 Days After Application, SETFA
[16] = SORVU: grain sorghum (Sorghum vulgare), read-out: Visual Growth Reduction (%) 14 Days After Application, SORVU
[17] = ZEAMX: maize, corn (Zea mays), read-out: Visual Growth Reduction (%) 14 Days After Application, ZEAMX

SMILES: C#Cc1ccc(-c2nc(C(=O)OC)c(Cl)c(N)c2C)cc1 [Compound 40, methyl 4-amino-3-chloro-6-(4-ethynylphenyl)-5-methylpicolinate]
- pest or weed control at 66 g/ha [1, 3]: 75 to 84%
- pest or weed control at 132 g/ha [1, 3]: 95 to 100%
- pest or weed control at 66 g/ha [1, 4]: 0 to 29%
- pest or weed control at 132 g/ha [1, 4]: 45 to 59%
- pest or weed control at 66 g/ha [1, 5]: 45 to 59%
- pest or weed control at 132 g/ha [1, 5]: 45 to 59%
- pest or weed control at 66 g/ha [1, 6]: 45 to 59%
- pest or weed control at 132 g/ha [1, 6]: 60 to 74%
- pest or weed control at 66 g/ha [1, 7]: 0 to 29%
- pest or weed control at 132 g/ha [1, 7]: 0 to 29%
- pest or weed control at 66 g/ha [1, 8]: 85 to 94%
- pest or weed control at 132 g/ha [1, 8]: 95 to 100%
- pest or weed control at 66 g/ha [1, 9]: 0 to 29%
- pest or weed control at 132 g/ha [1, 9]: 0 to 29%
- pest or weed control at 66 g/ha [2, 10]: 0 to 29%
- pest or weed control at 132 g/ha [2, 10]: 0 to 29%
- pest or weed control at 66 g/ha [2, 11]: 0 to 29%
- pest or weed control at 132 g/ha [2, 11]: 0 to 29%
- pest or weed control at 66 g/ha [2, 12]: 0 to 29%
- pest or weed control at 132 g/ha [2, 12]: 0 to 29%
- pest or weed control at 66 g/ha [2, 13]: 0 to 29%
- pest or weed control at 132 g/ha [2, 13]: 0 to 29%
- pest or weed control at 66 g/ha [2, 14]: 0 to 29%
- pest or weed control at 132 g/ha [2, 14]: 0 to 29%
- pest or weed control at 66 g/ha [2, 15]: 0 to 29%
- pest or weed control at 132 g/ha [2, 15]: 0 to 29%
- pest or weed control at 66 g/ha [2, 16]: 0 to 29%
- pest or weed control at 132 g/ha [2, 16]: 0 to 29%
- pest or weed control at 66 g/ha [2, 17]: 0 to 29%
- pest or weed control at 132 g/ha [2, 17]: 0 to 29%
